Seven compounds from patent US7807712B2, “Oxy substituted chalcones as antihyperglycemic and antidyslipidemic agents” (priority 2004, dated 2010) can be followed below.

Where two headings read alike, the source gives them in different places.

In one data set the test system is sucrose loaded rats. In words: Sucrose loaded rat model (SLM), antihyperglycemic activity. The format is in vivo, rat (Charles Foster/Wistar). The conditions noted are these: Rattus norvegicus, 2 h; 100 mg/kg oral; sucrose load 10.0 g/kg; AUC vs control, 30-120 min; read-out: % Fall in blood glucose levels SLM. Here is the method:
Male albino rats of Charles Foster/Wistar strain of average body weight 160±20 g were selected for this study. The blood glucose level of each animal was checked by glucometer using glucostrips (Boehringer Mannheim) after 16 h starvation. Animals showing blood glucose levels between 3.33 to 4.44 mM (60 to 80 mg/dl) were divided into groups of five to six animals in each. Animals of experimental group were administered suspension of the desired synthetic compound orally (made in 1.0% gum acacia) at a dose of 100-mg/kg-body weight. Animals of control group were given an equal amount of 1.0% gum acacia. A sucrose load (10.0 g/kg) was given to each animal orally exactly after 30 min post administration of the test sample/vehicle. Blood glucose profile of each rat was again determined at 30, 60, 90 and 120 min post administration of sucrose by glucometer. Food but not water was withheld from the cages during the course of experimentation. Quantitative glucose tolerance of each animal was calculated by Area Under Curve (AUC) method (Prism Software). Comparing the AUC of experimental and control groups determined the percentage antihyperglycemic activity. Statistical comparison was made by Dunnett's test.

The test system of data set [1] is streptozotocin-induced diabetic rats. In words: Sucrose-challenged streptozotocin-induced diabetic rats (STZ-S), antihyperglycemic activity. The format is in vivo, rat (Sprague Dawley). The conditions noted are these: 100 mg/kg oral, sucrose load 2.5 g/kg, AUC vs control. The method, then: Male albino rats of Sprague Dawley strain of body weight […] were selected for this study. Streptozotocin (Sigma, USA) was dissolved in 100 mM citrate buffer pH 4.5 and calculated amount of the fresh solution was injected to overnight fasted rats (45 mg/kg) intraperitoneally. Blood glucose level was checked 48 h later by glucostrips and animals showing blood glucose values between 144 to 270 mg/dl (8 to 15 mM) were included in the experiment and termed diabetic. The diabetic animals were divided into groups consisting of five to six animals in each group. Animals of experimental groups were administered suspension of the desired test samples orally (made in 1.0% gum acacia) at a dose of 100-mg/kg-body weight. Animals of control group were given an equal amount of 1.0% gum acacia. A sucrose load of 2.5-g/kg body weight was given after 30 minutes of compound administration. After 30 minutes of post sucrose load blood glucose level was again checked by glucostrips at 30, 60, 90, 120, 180, 240, 300 min and at 24 h, respectively. Animals not found diabetic after 24 hours post treatment of the test sample were not considered and omitted from the calculations and termed as non-responders. […] Food but not water was withheld from the cages during the experimentation. Comparing the AUC of experimental and control groups determined the percent antihyperglycemic activity. Statistical comparison between groups was made by Student's ‘t’ test.

Data set [2] deals with triton WR-1339 induced hyperlipidemic rats. In words: Triton model, antidyslipidemic activity. The note with it: Rattus norvegicus, 100 mg/kg oral. The format is in vivo, rat (Charles foster). The method, then: Male Charles foster rats weighing 200-225 g were divided into control, hyperlipidemic and hyperlipidemic plus drug treated groups containing six animals in each group. Hyperlipidemia was induced by administration of triton WR-1339 (200 mg/kg i.p.). All animals were maintained on a special pellet diet and water ad libitum. Compounds and standard drug were macerated with 0.2% aqueous gum acacia suspension. The suspension was fed orally at the dose of 100 mg/kg simultaneously with triton in drug treated group. The animals of control group received the same amount of gum acacia by similar route of administration. At the end of the experiment, after 18 h, blood was withdrawn from retro orbital plexus and plasma was used for the assay of total cholesterol, phospholipid and triglycerides.
Cholesterol was estimated using the kit provided by Roche Diagnostics. Cholesterol esters are enzymatically hydrolyzed by cholesterol esterase (CE) to cholesterol and free fatty acids. Free cholesterol, including that originally present, is then oxidized by cholesterol oxidase (CO) to cholest-4-en-3-one and hydrogen peroxide. The hydrogen peroxide combines with hydroxy benzoic acid (HBA) and 4-aminoantipyrine (4AAA) in the presence of peroxidase (POD) to form a chromophore (quinoneimine dye), which may be quantitated at 500-505 nm. The intensity of red colour formed is directly proportional to the concentration of total cholesterol in the specimen and measured spectrophotometrically (Searcy, C. L. Diagnostic Biochemistry, 1969, McGraw Hill, New York; Ellefson, R. D.; Caraway, W. T. Fundamentals of clinical chemistry, 1976, Ed Tietz N W, 506-515.)
Triglycerides were estimated using the kit provided by Roche Diagnostics. Lipoprotein lipase hydrolyses triglycerides to yield glycerol and fatty acids. Glycerol kinase converts glycerol to glycerol-3-phosphate, which is oxidized by glycerol phosphate oxidase to dihydroxy acetone phosphate and hydrogen peroxide. In the presence of peroxidase, hydrogen peroxide oxidatively couples with 4-aminoantipyrine and 4-chloro phenol to produce red quinonimine dye. The intensity of red colour formed is directly proportional to the concentration of triglycerides in the specimen and is measured by photometrically (Wahlefeld, A. W.; Bergmeyer, H. U. Ed. Methods of enzymatic analysis, 2nd English edition, New York, N.Y., Academic press inc, 1831-1840.).
Serum (0.2 mL) and perchloric acid (1.0 mL) was digested at 180° C. for 1-1.5 h till the solution became colorless. The liberated inorganic phosphate (Pi) was measured by the method of Fiske and Subbarow (Fiske, C. H.; Subbarow, V. J. Biol. Chem. 1925, 66, 375.). 1 mL of 2.5% ammonium molybdate (prepared in 5 N sulphuric acid) and 0.5 mL reducing agent (4-amino naphthol sulphonic acid, 0.2%), sodium metabisulphite (2.4% w/v in distilled water) was added to the above tubes and mixed well. The reaction mixture was […] with 2.5 mL of triple distilled water and kept at 60° C. in water bath for 20 min. For standard, an appropriate amount of potassium dihydrogen phosphate dissolved in triple distilled water containing 2-10 μg phosphorus (Pi) was run simultaneously with the experiment tubes. The optical density of the blue colour was recorded at 620 nm against reagent blank. The values of Pi were converted into phospholipid by multiplying with 25 (a constant calibrated from Pi value of lecithin).

Setting [3] is: plasma phospholipid after 18 h, read-out: % Fall in lipid levels (Triton model) PL.
Setting [4] is: plasma total cholesterol after 18 h, read-out: % Fall in lipid levels (Triton model) TC.
Setting [5] is: plasma triglycerides after 18 h, read-out: % Fall in lipid levels (Triton model) TG.

Regarding `COc1ccc(/C=C/C(=O)c2ccc(OCC(O)CN3CCN(c4ccccc4OC)CC3)cc2)cc1` (centres unmarked) [Compound 24, 4′-[2-Hydroxy-3-{4-(2-methoxyphenyl)-piperazin-1-yl}-propoxy]-4-methoxy-chalcone], the melting point (as a rule, the temperature, or range, at which the solid turns liquid) was in the range of 97 to 98 °C. The inhibition in vivo at 100 mg/kg in the data set with sucrose loaded rats came to 10.8%. Further, in data set [1], the “% Fall in blood glucose levels STZ-S 24 h” value worked out at 6.18%. Also, the inhibition in vivo at 100 mg/kg in data set [2] (setting [3]) is 15%. Moreover, the inhibition in vivo at 100 mg/kg in data set [2] (setting [4]) worked out at 24%. Moreover, in data set [2] (setting [5]), the inhibition in vivo at 100 mg/kg stood at 14%.
For the compound `CC(C)CNCC(O)COc1ccc(C(=O)/C=C/c2ccc3c(c2)OCO3)cc1` (centres unmarked) [Compound 35, 4′-[3-iso-Butylamino-2-hydroxy-propoxy]-3,4-methylenedioxy-chalcone], the melting point lay in the range of 122 to 123 °C. Moreover, the inhibition in vivo at 100 mg/kg in the data set on sucrose loaded rats is 23.8%. Besides, the “% Fall in blood glucose levels STZ-S 24 h” value in data set [1] is reported as 11.6%. In addition, the inhibition in vivo at 100 mg/kg in data set [2] (setting [3]) is 9%. For the same compound, the inhibition in vivo at 100 mg/kg in data set [2] (setting [4]) amounted to 13%. In addition, the inhibition in vivo at 100 mg/kg in data set [2] (setting [5]) amounted to 13%.
As to `COc1ccc(/C=C/C(=O)c2ccc(OCC(O)CN3CCN(c4ccccc4)CC3)cc2)cc1` (centres unmarked) [Compound 20, 4′-[2-Hydroxy-3-(4-phenylpiperazin-1-yl)-propoxy]-4-methoxy-chalcone], the melting point was 165 to 167 °C. For the same compound, the inhibition in vivo at 100 mg/kg with sucrose loaded rats came to 7.78%. Moreover, in data set [1], the “% Fall in blood glucose levels STZ-S 5 h” value is recorded as “NIL” and the “% Fall in blood glucose levels STZ-S 24 h” value is “NIL”. The inhibition in vivo at 100 mg/kg in data set [2] (setting [3]) came to 11%. Further, the inhibition in vivo at 100 mg/kg in data set [2] (setting [4]) stood at 11%. The inhibition in vivo at 100 mg/kg in data set [2] (setting [5]) amounted to 10%.
Compound `CCCCNCC(O)COc1ccc(C(=O)/C=C/c2ccc(OC)cc2)cc1` (centres unmarked) [Compound 27, 4′-[3-n-Butylamino-2-hydroxy-propoxy]-4-methoxy-chalcone] showed a melting point of 163 to 164 °C. In addition, in the data set on sucrose loaded rats, the inhibition in vivo at 100 mg/kg was 38%. In data set [1], the “% Fall in blood glucose levels STZ-S 5 h” value is on record as “NIL” and the “% Fall in blood glucose levels STZ-S 24 h” value is “NIL”. In addition, in data set [2] (setting [3]), the inhibition in vivo at 100 mg/kg amounted to 22%. For the same compound, in data set [2] (setting [4]), the inhibition in vivo at 100 mg/kg stood at 25%. In data set [2] (setting [5]), the inhibition in vivo at 100 mg/kg was found to be 20%.
`COc1ccc(/C=C/C(=O)c2ccc(OCC(O)CNC(C)(C)C)cc2)cc1` (centres unmarked) [Compound 22, 4′-[3-tert-Butylamino-2-hydroxy-propoxy]-4-methoxy-chalcone] came in with a melting point of 70 to 71 °C. In the data set on sucrose loaded rats, the inhibition in vivo at 100 mg/kg came out at 11.8%. Besides, in data set [1], the “% Fall in blood glucose levels STZ-S 5 h” value was “NIL” and the “% Fall in blood glucose levels STZ-S 24 h” value is recorded as “NIL”. For the same compound, in data set [2] (setting [3]), the inhibition in vivo at 100 mg/kg came to 11%. Moreover, the inhibition in vivo at 100 mg/kg in data set [2] (setting [4]) turned out to be 16%. Also, the inhibition in vivo at 100 mg/kg in data set [2] (setting [5]) amounted to 21%.
`COc1ccc(/C=C/C(=O)c2ccccc2OCC(O)CNC(C)C)cc1` (centres unmarked) [Compound 32, 2′-[2-Hydroxy-3-iso-propylamino-propoxy]-4-methoxy-chalcone] showed a melting point of 88 to 89 °C. In addition, the inhibition in vivo at 100 mg/kg in the data set with sucrose loaded rats stood at 47%. In addition, in data set [1], the “% Fall in blood glucose levels STZ-S 24 h” value is given as 2.77%. The inhibition in vivo at 100 mg/kg in data set [2] (setting [3]) is 15%. Moreover, the inhibition in vivo at 100 mg/kg in data set [2] (setting [4]) is 22%. Further, the inhibition in vivo at 100 mg/kg in data set [2] (setting [5]) worked out at 29%.
As to `CCCCNCC(O)COc1ccccc1C(=O)/C=C/c1ccc(OC)cc1` (centres unmarked) [Compound 31, 2′-[3-n-Butylamino-2-hydroxy-propoxy]-4-methoxy-chalcone], the melting point was in the range of 106 to 107 °C. Moreover, in the data set with sucrose loaded rats, the inhibition in vivo at 100 mg/kg came out at 33.1%. Besides, in data set [1], the “% Fall in blood glucose levels STZ-S 5 h” value is “NIL” and the “% Fall in blood glucose levels STZ-S 24 h” value was “NIL”. Further, in data set [2] (setting [3]), the inhibition in vivo at 100 mg/kg came out at 3%.
